# From ChEMBL document CHEMBL5505970 (J Med Chem, 2024)
# Legend:
# [1] = Oral bioavailability in Sprague-Dawley rat at 20 mg/kg formulated as suspension in 0.5% methocel and 0.02% SLS measured for 24 hrs by reverse phase liquid chromatography coupled to mass spectrometry; type: ADME, organism-based; conditions: in vivo
# [2] = Clearance in rat hepatocytes at 1 uM measured per million cells by ESI/LC-MS/MS analysis; type: ADME, cell-based, Hepatocyte; conditions: read-out: CLH
# [3] = Toxicity in BALB/c mouse assessed as early stage erythroblasts in bone marrow at 10 mg/kg, po qd for 3 days and 4 days off intermittent dosing for 4 cycles by flow cytometry; type: organism-based; conditions: in vivo, 672 h, time 28 day
# LoVo = experiment: Cytotoxicity against human LoVo cells assessed as reduction in cell viability incubated for 5 days by CellTiter-Glo assay; type: functional, cell-based; conditions: 120 h
# [4] = Clearance in Sprague-Dawley rat at 1 mg/kg, iv formulated as a solution in 10% PG:18% PEG400 in water or 5% NMP:95% (10% VitE TPGS in water) measured for 24 hrs by reverse phase liquid chromatography coupled to mass spectrometry; type: ADME, organism-based; conditions: in vivo
# [5] = Toxicity in BALB/c mouse assessed as megakaryocytes in bone marrow at 10 mg/kg, po qd for 3 days; type: organism-based; conditions: in vivo, 72 h, time 3 day
compound,measurement,setting,value
C[C@@H]1COCCN1c1cc([C@]2(O)C[C@H]3CC[C@@H](C2)O3)c2cnn(-c3cc[nH]n3)c2n1 [CAMONSERTIB],bioavailability,[1],45%
same,hepatocyte CLint at 1 µM,[2],17 µL/min/1e6 cells
same,Activity,[3],Non-Toxic
same,IC50,LoVo,28 nM
same,clearance,[4],22 mL/min/kg
same,Activity,[5],Non-Toxic
